{
  "source": "patent US5741805A",
  "about": "“Controlled release pilocarpine delivery system” (OraMed, Inc., priority 1995, dated 1998)",
  "origin": "cited, not measured here",
  "tested_on": "xerostomia",
  "settings": "5 mg capsules or tablets three to four times a day",
  "data": [
    {"molecule": "CC[C@@H]1C(=O)OC[C@@H]1Cc1cncn1C", "note": "[Pilocarpine, pilocarpine]", "values": [
      {"measurement": "salivary function", "result": "marked improvement"},
      {"measurement": "side effects", "result": "numerous side effects"}
    ]}
  ]
}
